The text below walks through data of ChEMBL document CHEMBL4392870, “Isolation and Biological Activity of 8- Epitetrodotoxin and the Structure of a Possible Biosynthetic Shunt Product of Tetrodotoxin, Cep-226A, from the Newt Cynops ensicauda popei” (J Nat Prod, 2019).

Assay [1] can be described thus: Inhibition of NaV in mouse Neuro2a cells assessed as suppression of ouabain/veratridine-induced reduction in cell viability measured after 20 hrs by WST8 assay.
A short description of assay [2]: Inhibition of NaV in mouse Neuro2a cells assessed as suppression of ouabain/veratridine-induced reduction in cell viability measured after 24 hrs by WST8 assay. It counts as cell-based. A general note: Tetrazolium dyes change colour on reduction, which living cells bring about.

A word on the EC50: it is the concentration that produces a half-maximal response. Regarding `NC1=N[C@H](O)[C@H]2[C@H]3O[C@]4(O)O[C@@H]([C@H](O)[C@@]2(N1)[C@@H]4O)[C@]3(O)CO`, the EC50 in assay [1] turned out to be 110 nM.

For the molecule `NC1=N[C@H](O)[C@H]2[C@H]3O[C@]4(O)O[C@@H](C[C@@]2(N1)[C@@H]4O)[C@]3(O)CO`, the EC50 in assay [2] stood at 250 nM.

Molecule `NC1=N[C@H](O)[C@H]2[C@H]3O[C@]4(O)O[C@@H]([C@@H](O)[C@@]2(N1)[C@@H]4O)[C@@]3(O)CO` yielded an ED50 in the assay filed under Rana temporaria of 96 nM. For the same molecule, the EC50 in assay [1] amounted to 33 nM.

`NC1=N[C@H](O)[C@H]2[C@H]3O[C@]4(O)O[C@@H]([C@@H](O)[C@@]2(N1)[C@@H]4O)[C@]3(O)CO` [TETRODOTOXIN] returned an ED50 in the assay filed under Rana temporaria of 4.1 nM. Besides, the EC50 in assay [1] came out at 1.9 nM.
